The record followed here is US10040781B2, “Tank-binding kinase inhibitor compounds” (Gilead Sciences, Inc., priority 2014, dated 2018).

One experiment addresses hJAK2 (Homo sapiens (Human), UniProt O60674). The experiment in a line: hJAK2 LANCE TR-FRET enzymatic assay. Type of experiment: biochemical. The following applies: read-out: JAK2 IC50. In general terms: In TR-FRET formats the signal depends on donor and acceptor labels being close together.
A further experiment addresses TBK1 (Homo sapiens (Human), UniProt Q9UHD2). The experiment in a line: TBK1 TR-FRET enzymatic assay.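 Note: phosphorylation of a biotinylated Ser/Thr peptide by purified full-length recombinant TBK1, read by TR-FRET after 240 min at 25 °C, IC50 is the geometric mean of at least four runs.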
Another experiment deals with IKKε (Homo sapiens (Human), UniProt Q14164). Description: IKKε TR-FRET enzymatic assay. It counts as biochemical. The following applies: read-out: IKKe IC50.

Counter-ions that a name gives are not always drawn.

Broadly, the IC50 is the concentration at which inhibition is half-maximal.

TBK1, sequence (Q9UHD2 whole entry): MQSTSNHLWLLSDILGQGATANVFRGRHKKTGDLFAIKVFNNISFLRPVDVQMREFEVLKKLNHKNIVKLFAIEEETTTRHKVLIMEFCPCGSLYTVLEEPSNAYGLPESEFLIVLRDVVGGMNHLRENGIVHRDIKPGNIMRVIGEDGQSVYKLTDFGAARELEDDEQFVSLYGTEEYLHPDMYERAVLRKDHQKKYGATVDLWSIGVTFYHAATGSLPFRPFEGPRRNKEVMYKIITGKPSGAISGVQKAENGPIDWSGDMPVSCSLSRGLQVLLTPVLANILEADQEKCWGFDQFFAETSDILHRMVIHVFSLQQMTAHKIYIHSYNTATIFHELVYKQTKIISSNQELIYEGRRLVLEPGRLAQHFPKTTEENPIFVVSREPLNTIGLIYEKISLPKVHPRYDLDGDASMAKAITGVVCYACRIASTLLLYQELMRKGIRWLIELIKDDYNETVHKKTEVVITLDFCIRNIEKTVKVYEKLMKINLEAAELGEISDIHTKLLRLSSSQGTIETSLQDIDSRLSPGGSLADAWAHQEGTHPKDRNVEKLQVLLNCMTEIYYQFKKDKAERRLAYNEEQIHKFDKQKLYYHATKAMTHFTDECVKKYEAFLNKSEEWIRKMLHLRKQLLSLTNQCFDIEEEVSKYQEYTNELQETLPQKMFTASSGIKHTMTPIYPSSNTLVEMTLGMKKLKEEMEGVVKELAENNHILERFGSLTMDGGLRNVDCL
hJAK2, sequence (O60674 whole entry): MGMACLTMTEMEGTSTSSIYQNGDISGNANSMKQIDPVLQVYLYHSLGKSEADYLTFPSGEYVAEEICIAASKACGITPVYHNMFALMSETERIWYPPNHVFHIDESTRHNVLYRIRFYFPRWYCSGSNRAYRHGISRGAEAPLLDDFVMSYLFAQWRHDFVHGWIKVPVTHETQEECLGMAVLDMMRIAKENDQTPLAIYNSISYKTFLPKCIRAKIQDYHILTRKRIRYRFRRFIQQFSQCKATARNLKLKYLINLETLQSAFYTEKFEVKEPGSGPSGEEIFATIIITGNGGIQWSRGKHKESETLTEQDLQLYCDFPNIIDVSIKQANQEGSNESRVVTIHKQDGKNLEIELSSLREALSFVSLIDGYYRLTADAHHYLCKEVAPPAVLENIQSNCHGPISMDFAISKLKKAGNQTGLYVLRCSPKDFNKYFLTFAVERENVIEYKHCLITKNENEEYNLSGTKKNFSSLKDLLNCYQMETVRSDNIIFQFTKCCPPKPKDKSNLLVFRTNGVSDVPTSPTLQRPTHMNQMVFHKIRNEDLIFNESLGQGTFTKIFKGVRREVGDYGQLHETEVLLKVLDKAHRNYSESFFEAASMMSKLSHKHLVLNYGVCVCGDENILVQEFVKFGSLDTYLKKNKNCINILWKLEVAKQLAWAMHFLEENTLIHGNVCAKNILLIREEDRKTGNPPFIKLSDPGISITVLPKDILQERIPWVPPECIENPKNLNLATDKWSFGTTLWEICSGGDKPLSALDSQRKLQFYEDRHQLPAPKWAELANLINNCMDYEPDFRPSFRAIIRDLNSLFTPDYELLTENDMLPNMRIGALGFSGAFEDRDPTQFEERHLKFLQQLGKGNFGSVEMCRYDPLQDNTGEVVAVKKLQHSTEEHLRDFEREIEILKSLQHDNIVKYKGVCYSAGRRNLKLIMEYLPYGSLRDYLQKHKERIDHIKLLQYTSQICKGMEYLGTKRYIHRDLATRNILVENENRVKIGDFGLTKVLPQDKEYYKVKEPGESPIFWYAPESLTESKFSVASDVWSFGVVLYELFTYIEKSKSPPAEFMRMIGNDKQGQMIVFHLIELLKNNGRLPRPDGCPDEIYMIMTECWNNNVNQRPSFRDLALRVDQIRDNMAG
IKKε, sequence (Q14164 whole entry): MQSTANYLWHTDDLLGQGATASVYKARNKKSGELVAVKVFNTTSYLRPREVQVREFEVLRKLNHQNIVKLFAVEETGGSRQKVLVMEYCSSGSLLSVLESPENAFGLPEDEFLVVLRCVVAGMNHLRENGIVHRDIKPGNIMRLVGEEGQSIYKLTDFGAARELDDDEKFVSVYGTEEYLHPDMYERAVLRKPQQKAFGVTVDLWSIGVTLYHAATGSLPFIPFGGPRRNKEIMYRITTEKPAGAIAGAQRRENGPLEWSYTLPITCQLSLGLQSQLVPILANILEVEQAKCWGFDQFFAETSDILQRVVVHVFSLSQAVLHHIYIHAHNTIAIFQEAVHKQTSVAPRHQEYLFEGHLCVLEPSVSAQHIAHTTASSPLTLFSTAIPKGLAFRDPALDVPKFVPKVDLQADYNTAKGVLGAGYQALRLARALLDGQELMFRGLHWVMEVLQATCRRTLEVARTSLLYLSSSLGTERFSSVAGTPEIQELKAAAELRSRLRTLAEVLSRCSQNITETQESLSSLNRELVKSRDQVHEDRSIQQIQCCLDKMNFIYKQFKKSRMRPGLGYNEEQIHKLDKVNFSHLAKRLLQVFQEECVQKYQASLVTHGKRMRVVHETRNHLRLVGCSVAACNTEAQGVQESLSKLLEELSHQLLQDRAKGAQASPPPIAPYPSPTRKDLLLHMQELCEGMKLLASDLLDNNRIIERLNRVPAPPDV

As for `COc1cc(Nc2ncnc(-c3ccc(OC4CCOCC4)c(C#N)c3)n2)ccc1N1CCN(CC(F)F)CC1` [Example 7, 5-(4-((4-(4-(2,2-difluoroethyl)piperazin-1-yl)-3-methoxyphenyl)amino)-1,3,5-triazin-2-yl)-2-((tetrahydro-2H-pyran-4-yl)oxy)benzonitrile], the IC50 at hJAK2 turned out to be 225 nM; against TBK1 it was 1 nM; at IKKε, 3 nM.
For `Cn1cc(Nc2ncnc(-c3ccc(N4CCCC4)c(C#N)c3)n2)cn1` [Example 8, 5-(4-((1-methyl-1H-pyrazol-4-yl)amino)-1,3,5-triazin-2-yl)-2-(pyrrolidin-1-yl)benzonitrile] the same measures were 278 nM, 7 nM and 19 nM.
The like results for `Cn1cc(Nc2ncnc(-c3ccc(OC4CCOCC4)c(C#N)c3)n2)cn1` [Example 9, 5-(4-((1-methyl-1H-pyrazol-4-yl)amino)-1,3,5-triazin-2-yl)-2-((tetrahydro-2H-pyran-4-yl)oxy)benzonitrile] were, in that order, 363 nM, 3 nM and 7 nM.
For `N#Cc1cc(-c2ncnc(Nc3ccc(N4CCN(C5COC5)CC4)cc3)n2)ccc1N1CCCC1` [Example 10, 5-(4-((4-(4-(oxetan-3-yl)piperazin-1-yl)phenyl)amino)-1,3,5-triazin-2-yl)-2-(pyrrolidin-1-yl)benzonitrile] the same measures were 336 nM, 5 nM and 15 nM.
Turning to `CC(=O)N1CCN(c2ccc(Nc3ncnc(-c4ccc(OC5CCOCC5)c(C#N)c4)n3)cc2)CC1` [Example 11, 5-(4-((4-(4-acetylpiperazin-1-yl)phenyl)amino)-1,3,5-triazin-2-yl)-2-((tetrahydro-2H-pyran-4-yl)oxy)benzonitrile], the results for the half-inhibitory concentration (IC50) on hJAK2, against TBK1 and at IKKε were 224 nM, 1 nM and 4 nM, respectively.
For `COc1cc(Nc2ncnc(-c3ccc(OC4CCOCC4)c(C#N)c3)n2)ccc1N1CCN(C2COC2)CC1` [Example 13, 5-(4-((3-methoxy-4-(4-(oxetan-3-yl)piperazin-1-yl)phenyl)amino)-1,3,5-triazin-2-yl)-2-((tetrahydro-2H-pyran-4-yl)oxy)benzonitrile] the same measures were 127 nM, 1 nM and 2 nM.
Take `C[C@H](O)C(=O)N1CCC(Oc2ccc(-c3ncnc(Nc4ccc(N5CCN(C6COC6)CC5)cc4)n3)cc2C#N)CC1` [Example 15, (S)-2-((1-(2-hydroxypropanoyl)piperidin-4-yl)oxy)-5-(4-((4-(4-(oxetan-3-yl)piperazin-1-yl)phenyl)amino)-1,3,5-triazin-2-yl)benzonitrile]: the half-inhibitory concentration (IC50) was over 1000 nM on hJAK2, 5 nM at TBK1 and 14 nM on IKKε.
For the molecule `N#Cc1cc(-c2ncnc(Nc3ccc(N4CCN(C5COC5)CC4)cc3)n2)ccc1OC1CCN(C(=O)CO)CC1` [Example 16, 2-((1-(2-hydroxyacetyl)piperidin-4-yl)oxy)-5-(4-((4-(4-(oxetan-3-yl)piperazin-1-yl)phenyl)amino)-1,3,5-triazin-2-yl)benzonitrile], the IC50 worked out at 603 nM on hJAK2, 1 nM against TBK1 and 4 nM on IKKε.
For `N#Cc1cc(-c2ncnc(Nc3ccc(N4CCN(C5COC5)CC4)cc3)n2)ccc1OC1CCS(=O)(=O)CC1` [Example 17, 2-((1,1-dioxidotetrahydro-2H-thiopyran-4-yl)oxy)-5-(4-((4-(4-(oxetan-3-yl)piperazin-1-yl)phenyl)amino)-1,3,5-triazin-2-yl)benzonitrile] the same measures were 540 nM, 9 nM and 54 nM.
As to `N#Cc1cc(-c2ncnc(Nc3ccc(N4CCNCC4)cc3)n2)ccc1OC1CCOCC1` [Example 18, 5-(4-((4-(piperazin-1-yl)phenyl)amino)-1,3,5-triazin-2-yl)-2-((tetrahydro-2H-pyran-4-yl)oxy)benzonitrile, trifluoroacetic acid salt], the values for the IC50 on hJAK2, against TBK1 and at IKKε were 271 nM, 1 nM and 1 nM, respectively.
With `N#Cc1cc(-c2ncnc(Nc3ccc(N4CCN(C5COC5)CC4)cc3)n2)ccc1OC1CCSCC1` [Example 19, 5-(4-((4-(4-(oxetan-3-yl)piperazin-1-yl)phenyl)amino)-1,3,5-triazin-2-yl)-2-((tetrahydro-2H-thiopyran-4-yl)oxy)benzonitrile], the values for the IC50 at hJAK2, against TBK1 and on IKKε were over 1000 nM, 1 nM and 4 nM, respectively.
For `COc1cc(Nc2ncnc(-c3ccc(OC4CCOCC4)c(C#N)c3)n2)ccc1C1CCN(C2COC2)CC1` [Example 20, 5-(4-((3-methoxy-4-(1-(oxetan-3-yl)piperidin-4-yl)phenyl)amino)-1,3,5-triazin-2-yl)-2-((tetrahydro-2H-pyran-4-yl)oxy)benzonitrile] the same measures were over 1000 nM, 2 nM and 2 nM.
For `COc1cc(Nc2ncnc(-c3ccc(OC4CCOCC4)c(C#N)c3)n2)ccc1C(N)=O` [Example 21, 4-((4-(3-cyano-4-((tetrahydro-2H-pyran-4-yl)oxy)phenyl)-1,3,5-triazin-2-yl)amino)-2-methoxybenzamide] the same measures were over 1000 nM, 4 nM and 6 nM.
In the case of `COc1cc(Nc2ncnc(-c3ccc(O[C@@H]4CCN(C(=O)CO)C4)c(C#N)c3)n2)ccc1N1CCN(C2COC2)CC1` [Example 22, (R)-2-((1-(2-hydroxyacetyl)pyrrolidin-3-yl)oxy)-5-(4-((3-methoxy-4-(4-(oxetan-3-yl)piperazin-1-yl)phenyl)amino)-1,3,5-triazin-2-yl)benzonitrile], the IC50 turned out to be 128 nM on hJAK2, 3 nM against TBK1 and 8 nM at IKKε.
The like results for `C[C@H](O)C(=O)N1CCC(Oc2ccc(-c3ncnc(Nc4ccc(C5CCN(C6COC6)CC5)cc4)n3)cc2C#N)CC1` [Example 23, (S)-2-((1-(2-hydroxypropanoyl)piperidin-4-yl)oxy)-5-(4-((4-(1-(oxetan-3-yl)piperidin-4-yl)phenyl)amino)-1,3,5-triazin-2-yl)benzonitrile] were, in that order, over 1000 nM, 6 nM and 10 nM.
For `COc1cc(Nc2ncnc(-c3ccc(OC4CCOCC4)c(C#N)c3)n2)cc(OC)c1OC` [Example 24, 2-((tetrahydro-2H-pyran-4-yl)oxy)-5-(4-((3,4,5-trimethoxyphenyl)amino)-1,3,5-triazin-2-yl)benzonitrile] the same measures were 602 nM, 1 nM and 2 nM.
For the molecule `N#Cc1cc(-c2ncnc(Nc3ccc(N4CCN(C5COC5)CC4)c(F)c3)n2)ccc1OC1CCOCC1` [Example 27, 5-(4-((3-fluoro-4-(4-(oxetan-3-yl)piperazin-1-yl)phenyl)amino)-1,3,5-triazin-2-yl)-2-((tetrahydro-2H-pyran-4-yl)oxy)benzonitrile], the figures for the IC50 on hJAK2, on TBK1 and at IKKε were 988 nM, 2 nM and 7 nM, respectively.
`N#Cc1cc(-c2ncnc(Nc3ccc(N4CCN(C5COC5)CC4)cc3)n2)ccc1N1CCCC1=O` [Example 28, 5-[4-[4-[4-(oxetan-3-yl)piperazin-1-yl]anilino]-1,3,5-triazin-2-yl]-2-(2-oxopyrrolidin-1-yl)benzonitrile]: the IC50 on hJAK2 worked out at 583 nM; on TBK1, 225 nM; at IKKε, 529 nM.
With `COc1cc(Nc2ncnc(-c3ccc(OC4CCOCC4)c(C#N)c3)n2)ccc1OC(F)F` [Example 31, 5-(4-((4-(difluoromethoxy)-3-methoxyphenyl)amino)-1,3,5-triazin-2-yl)-2-((tetrahydro-2H-pyran-4-yl)oxy)benzonitrile], the values for the IC50 on hJAK2, on TBK1 and on IKKε were over 1000 nM, 9 nM and 20 nM, respectively.
As for `COc1cc(Nc2ncnc(-c3ccc(OC4CCOCC4)c(C#N)c3)n2)ccc1N1CCN(C(C)=O)CC1` [Example 32, 5-(4-((4-(4-acetylpiperazin-1-yl)-3-methoxyphenyl)amino)-1,3,5-triazin-2-yl)-2-((tetrahydro-2H-pyran-4-yl)oxy)benzonitrile], the IC50 stood at 68 nM at hJAK2, 1 nM on TBK1 and 2 nM at IKKε.
The like results for `COc1cc(Nc2ncnc(-c3ccc(OC4CCS(=O)(=O)CC4)c(C#N)c3)n2)ccc1N1CCN(C2COC2)CC1` [Example 33, 2-((1,1-dioxidotetrahydro-2H-thiopyran-4-yl)oxy)-5-(4-((3-methoxy-4-(4-(oxetan-3-yl)piperazin-1-yl)phenyl)amino)-1,3,5-triazin-2-yl)benzonitrile] were, in that order, 59 nM, 4 nM and 18 nM.
The like results for `N#Cc1cc(-c2ncnc(Nc3ccc(N4CCN(C5COC5)CC4)cc3)n2)ccc1OC1CCCOC1` (stereo not drawn) [Example 34, 5-(4-((4-(4-(oxetan-3-yl)piperazin-1-yl)phenyl)amino)-1,3,5-triazin-2-yl)-2-((tetrahydro-2H-pyran-3-yl)oxy)benzonitrile] were, in that order, over 1000 nM, 12 nM and 45 nM.
For `N#Cc1cc(-c2ncnc(Nc3ccc(N4CCN(C5COC5)CC4)cc3)n2)ccc1N1CC(O)C1` [Example 35, 2-(3-hydroxyazetidin-1-yl)-5-(4-((4-(4-(oxetan-3-yl)piperazin-1-yl)phenyl)amino)-1,3,5-triazin-2-yl)benzonitrile] the same measures were 166 nM, 7 nM and 29 nM.
On to `N#Cc1cc(Nc2ncnc(-c3ccc(OC4CCOCC4)c(C#N)c3)n2)ccc1OC1CCOCC1` [Example 36, 5-((4-(3-cyano-4-((tetrahydro-2H-pyran-4-yl)oxy)phenyl)-1,3,5-triazin-2-yl)amino)-2-((tetrahydro-2H-pyran-4-yl)oxy)benzonitrile], for which the half-maximal inhibitory concentration (IC50) at hJAK2 was over 1000 nM; at TBK1, 10 nM; on IKKε, 12 nM.
